Assay results taken from patent US12090147B2, “Combination therapy with 2-(4-chlorophenyl)-N-((2-(2,6-dioxopiperidin-3-yl)-1-oxoisoindolin-5-yl)methyl)-2,2-difluoroacetamide” (Celgene Corporation, priority 2019, dated 2024).

Tests used:
ML-2 [1] = experiment: Cell viability (CELL TITER-GLO), Compound 1 IC50 / dose response; assay type: cell-based; conditions: Homo sapiens; ML-2 (monocytic, FAB M4)
Procedure: For CELL TITER-GLO® (CTG; Promega) and Incucyte assays, cells were seeded at 0.1 million per mL, 50 μL per well of Corning black 384-well plate and allowed set overnight. The next day, test compounds were dispensed using a Tecan D300e digital dispenser according to manufacturer's instruction.
Human AML cell lines, HL-60 (CCL-240), KG-1 (CCL-246), ML-2 (ACC-15), MOLM-13 (ACC-554), MV-4-11 (CRL-9591), NOMO-1 (ACC-542), TF-1 (CRL-2003), THP-1 (TIB-202), and U937 (CRL-1593) were obtained from American Type Culture Collection (ATCC; Manassas, VA) or Deutsche Sammlung von Mikroorganismen and Zellkulturen (DSMZ, Germany) cell banks. […]
AML cell lines and primary AML were treated in duplicate or triplicates with DMSO or test compounds in 384-well plates for 3 days. Cell viability was determined by CELL TITER-GLO® (CTG; Promega) assay kit according to manufacturer's instructions. Apoptosis was monitored using Caspase 3/7 Green reagent (Essen Biosciences Cat No. 4440). Caspase-3/7 activation levels were quantified using the IncuCyte™ ZOOM basic analyzer.
Cell proliferation (CTG) and caspase 3/7 activation (IncuCyte) were analyzed using GraphPad Prism. Electrochemiluminescence data was analyzed using MSD Discovery Workbench platform.

[2] = test system: ML-2 parental, caspase 1 and caspase 8 knock out cells; experiment: IL-1β in CRISPR/Cas9 caspase 1 or caspase 8 knock out cells (lysate and supernatant); assay type: cell-based, human; conditions: 1 μM Compound 1
Procedure: To further confirm if caspase 8 is necessary for Compound 1 induced IL-1β upregulation and/or release, knock out studies were performed. Caspase 1 or caspase 8 was knocked out by CRISPR/Cas9 in ML-2 cells, and the effect of Compound 1 on intracellular and secreted IL-1β levels was investigated. Parental, caspase 1 and caspase 8 knock out cells were treated with or without 1 μM Compound 1. IL-1β levels were analyzed 48 and 72 hours post-compound treatment in cell lysate and culture supernatant.

ML-2 [3] = experiment: Cytokine induction, electrochemiluminescence assay of culture supernatant; assay type: cell-based, human; conditions: compounds at 1 μM, 72 hours
[4] = test system: ML-2, MV4-11 and MOLM13 cell lines; experiment: VEGF and TNFa levels, electrochemiluminescence assay; assay type: cell-based, human; conditions: compared to other mechanistic agents
Procedure: IL-1α (Meso Scale Disgnostics, Cat No. K151RBD), IL-1β (Meso Scale Disgnostics, Cat No. K151QPD), IL-1RA (Meso Scale Disgnostics, Cat No. K151WTD), IL-18 (Meso Scale Disgnostics, Cat No. K151VJK), TNFa (Meso Scale Disgnostics, Cat No. K151QWD), VEGF Meso Scale Disgnostics, Cat No. K151RHD) levels were measured by (Meso Scale Disgnostics assay kits following manufacturer's instructions. Measurements were made on a MESO™ SECTOR S 600 plate reader (Meso Scale Disgnostics).
To further explore the mechanisms underlying IL-1β induction by Compound 1, and compounds with different, but related mechanisms to Compound 1 were tested in three AML cell lines, ML-2, MV4-11 and MOLM-13 (FIG. 4 and FIG. 5). Compound 1 degrades GSPT1 through cereblon mediated protein degradation, which leads to global translation inhibition, activation of ISR and subsequently apoptosis. […] To assess if GSPT1 degradation leads to pan-cytokine induction or specific to IL-1β, the compound effect was compared on the levels of two other known hypotension inducing cytokines, TNFa and VEGF (FIG. 7).

ML-2 cells = experiment: Immunoblot analysis of target proteins; assay type: cell-based, human
Procedure: Cells were washed in ice-cold 1×PBS twice before harvest in Cell Extraction Buffer (ThermoFisher Cat No. FNN0011) supplemented with 1× Halt Protease Inhibitor Cocktail (ThermoFisher Cat No. 78429). Whole cell extracts were collected after centrifugation at 14,000 g for 10 minutes, resolved on 4-12% Bis-Tris Novex Precast Gels (ThermoFisher Cat No. WG1403A), transferred onto a nitrocellulose membrane using the Turboblot Turbo Transfer System (Bio-Rad), and probed with the indicated primary antibodies. Bound antibodies were detected with IRDye-680 or -800 conjugated secondary antibodies using a LI-COR scanner.
Antibodies used for immunoblot: mouse anti-human GSPT-1 mAb conjugated with AL647 (clone number GSPT1-164-17G9-G6, Celgene, San Diego, CA), IL-1β (R&D Systems, Cat No. AF-201-NA), cleaved caspase 3 (Cell Signaling, Cat No. 9664S), alpha-tubulin (Cell Signaling, Cat No. 3873S), cleaved Caspase-8 (Cell Signaling, Cat No. 9748S), Caspase-1 (Cell Signaling, Cat No. 3866S), HA tag (Cell Signaling, Cat No. 3724), phosphor-eIF2a (Cell Signaling, Cat No. 9721), total eIF2a (Cell Signaling, Cat No. 9722), ATF4 (Cell Signaling, Cat No. 11815S), CHOP (Abcam, Cat No. 11419), GAPDH (Cell Signaling, Cat No. 5174), rabbit anti-mouse 800 antibody (LI-COR Biosciences), rabbit anti-mouse 680 antibody (LI-COR Biosciences), mouse anti-rabbit 680 antibody (LI-COR Biosciences), mouse anti-rabbit 800 antibody (LI-COR Biosciences)
The level of intracellular pro IL-1β and released IL-1β in eight AML cell lines and normal PBMC treated with a titration of Compound 1 over a 48 hour period was assessed. (see FIGS. 1A-1C, Table 2). Supernatant IL-1βb level was induced over 5 fold in 6 out of 8 AML cell lines and normal PBMC upon Compound 1 treatment compared to DMSO (FIGS. 1A, 1B, and 1C, Table 2).

Question: Which IC50 (ML-2 [1]) does the source give for `O=C1CCC(N2Cc3cc(CNC(=O)C(F)(F)c4ccc(Cl)cc4)ccc3C2=O)C(=O)N1` (stereo not drawn) [Compound 1, 2-(4-chlorophenyl)-N-((2-(2,6-dioxopiperidin-3-yl)-1-oxoisoindolin-5-yl)methyl)-2,2-difluoroacetamide] here?
Answer: The IC50 was 15.1 nM.

Question: And the “Induction of IL-1β release” value ([2]; caspase 8 knock out ML-2 cells)?
Answer: Its value is “compromised”.

Question: What about the Pro-IL-1β upregulation ([2]; caspase 8 knock out ML-2 cells) of the same molecule?
Answer: Its Pro-IL-1β upregulation is “remains intact”.

Question: What about the “Pro-IL-1β upregulation and secreted IL-1β” value ([2]; parental and caspase 1 knock out ML-2 cells, 48 and 72 hours) of the same molecule?
Answer: Its value is “Upregulation of pro-IL-13 and increased secreted IL-1β were evident”.

Question: What about the “Secreted IL-1β levels, panel of mechanistic compounds” value (ML-2 [3]) of the same molecule?
Answer: Its value is “produced markedly more secreted IL-1β compared to all other compounds tested”.

Question: What about the “VEGF and TNFa levels” value [4] of the same molecule?
Answer: The value was “did not induce more VEGF nor TNFa compared to other mechanistic agents”.

Question: And the “Intracellular pro-IL-1β (immunoblot)” value (ML-2 cells; 24, 48 and 72 hours, doses conferring similar caspase3/7 activation and viability loss)?
Answer: The value was “conferred induction”.

Question: What about the “Cleaved caspase 3 (immunoblot)” value (ML-2 cells; 24 hours) of the same molecule?
Answer: Its value is “concurrent induction of cleaved caspase 3”.

Question: And the “GSPT1 level (immunoblot)” value (ML-2 cells; two high doses of Compound 1 at 24 hours)?
Answer: Its value is “significant reduction of GSPT1”.
